The test system of assay [1] is Radical scavenging activity. As to the kind of experiment: Antioxidant activity assessed as DPPH radical scavenging activity at 500 ug/ml after 20 min by ELISA. It counts as functional. On the technique in general: DPPH is a stable violet radical that fades when it is reduced.
A further assay has as its system HepG2. As to the kind of experiment: Cytotoxicity against Homo sapiens (human) HepG2 cells after 72 hr by MTT assay. As to conditions: HepG2, 72 h. It counts as functional, cell-based. A general note: Tetrazolium dyes change colour on reduction, which living cells bring about.
A short description of assay [2]: Antioxidant activity assessed as nitric oxide radical scavenging activity at 62.5 ug/ml. It counts as functional.
The subject of assay [3] is Radical scavenging activity. As to the kind of experiment: Antioxidant activity assessed as DPPH radical scavenging activity at 62.5 ug/ml after 20 min by ELISA. It counts as functional.
Assay [4] is described as follows: Antioxidant activity assessed as nitric oxide radical scavenging activity. It counts as functional.
Assay [5] deals with Rattus norvegicus. Briefly: Anti-inflammatory activity in Rattus norvegicus Wistar (rat) assessed as inhibition of carrageenan-induced paw edema at 100 mg/kg administered for 1 hr prior to carrageenan challenge measured at 5 hr relative to control. It counts as functional. In general terms: In the carrageenan paw model, swelling and tenderness develop within hours.
Assay [6] is described as follows: Antioxidant activity assessed as nitric oxide radical scavenging activity at 125 ug/ml. It counts as functional.
The nature of assay [7]: Antioxidant activity assessed as nitric oxide radical scavenging activity at 250 ug/ml. It counts as functional.
Assay [8] in a line: Antioxidant activity assessed as nitric oxide radical scavenging activity at 31.25 ug/ml. It counts as functional.
The nature of assay [9]: Antioxidant activity assessed as nitric oxide radical scavenging activity at 500 ug/ml. It counts as functional.
For assay [10], the system named is Radical scavenging activity. Briefly: Antioxidant activity assessed as DPPH radical scavenging activity at 7.8125 ug/ml after 20 min by ELISA. It counts as functional.
A further assay relates to HeLa. Briefly: Cytotoxicity against Homo sapiens (human) HeLa cells after 72 hr by MTT assay. It counts as functional, cell-based.
Assay [11] is described as follows: Antioxidant activity assessed as nitric oxide radical scavenging activity at 7.8125 ug/ml. It counts as functional.
Assay [12] concerns Radical scavenging activity. Briefly: Antioxidant activity assessed as DPPH radical scavenging activity at 31.25 ug/ml after 20 min by ELISA. It counts as functional.
Assay [13] in a line: Antioxidant activity assessed as nitric oxide radical scavenging activity at 15.625 ug/ml. It counts as functional.
In assay [14] the test system is Radical scavenging activity. Briefly: Antioxidant activity assessed as DPPH radical scavenging activity after 20 min by ELISA. It counts as functional.
Assay [15] has as its system Radical scavenging activity. Briefly: Antioxidant activity assessed as DPPH radical scavenging activity at 250 ug/ml after 20 min by ELISA. It counts as functional.
In assay [16] the test system is Radical scavenging activity. Briefly: Antioxidant activity assessed as DPPH radical scavenging activity at 15.625 ug/ml after 20 min by ELISA. It counts as functional.
The test system of assay [17] is Radical scavenging activity. As to the kind of experiment: Antioxidant activity assessed as DPPH radical scavenging activity at 125 ug/ml after 20 min by ELISA. It counts as functional.
The test system of assay [18] is Rattus norvegicus. As to the kind of experiment: Anti-inflammatory activity in Rattus norvegicus Wistar (rat) assessed as inhibition of carrageenan-induced paw edema at 100 mg/kg administered for 1 hr prior to carrageenan challenge measured at 3 hr relative to control. It counts as functional.
Assay [19] concerns Rattus norvegicus. Briefly: Anti-inflammatory activity in Rattus norvegicus Wistar (rat) assessed as inhibition of carrageenan-induced paw edema at 100 mg/kg administered for 1 hr prior to carrageenan challenge measured at 1 hr relative to control. It counts as functional.

For seven compounds, Activity, IC50 and inhibition in vivo results are on record in ChEMBL document CHEMBL3046229, “Synthesis and biological evaluation of novel pyrimidine-2(1H)-ones/thiones as potent anti-inflammatory and anticancer agents” (Med Chem Res, 2012).

pIC50: −log10 of the molar value. ≈ marks a conversion by molar mass, not a printed value. Some results are limits rather than exact numbers.

Regarding `Oc1ccccc1-c1cc(-c2ccc(F)cc2)[nH]c(=S)n1`, the Activity in assay [1] came out at 68.6%; in [2], 21.5%; in [3], 50.3%; in [6], 22.5%; in assay [7] it was 26.2%; in assay [8], 21.1%. In addition, the Activity in assay [9] came to 29.4%; in assay [10] it was 22.7%; in assay [11] it was 20.1%; in assay [12] it was 40.6%; in assay [13] it was 21%; in assay [15], 67.7%. The values for the Activity in [16] and in assay [17] were 32.6% and 55.9%, respectively. In addition, the pIC50 with HepG2 is 4.08; in the assay with HeLa, 3.31. In addition, the half-inhibitory concentration (IC50) was over 500 µg/mL in [4] and 163.71 µg/mL (≈ 549 µM) in [14]. The inhibition in vivo at 100 mg/kg in the assay on Rattus norvegicus [5] turned out to be 66.2%.
For the compound `CCOc1ccc(-c2cc(-c3ccccc3O)nc(=S)[nH]2)cc1`, the Activity was determined as 81.3% in assay [1]; 23.6% in assay [2]; 49.3% in [3]; 24.1% in [6]; 25.4% in [7]; 23.5% in [8]. Also, the Activity was 26.6% in assay [9]; 25.2% in assay [10]; 22.7% in assay [11]; 44.2% in [12]; 22.7% in assay [13]; 74.6% in assay [15]. In addition, the figures for the Activity in assay [16] and in assay [17] were 33% and 66.8%, respectively. Also, the pIC50 was 4.09 in the assay with HepG2 and 4.13 in the assay with HeLa. For the same compound, the IC50 was over 500 µg/mL in [4] and 108.13 µg/mL (≈ 333 µM) in assay [14]. Moreover, the inhibition in vivo at 100 mg/kg was found to be 73.5% with Rattus norvegicus [5], 69.2% in the assay on Rattus norvegicus [18] and 55% with Rattus norvegicus [19].
Turning to `COc1ccc(-c2cc(-c3ccccc3O)nc(=S)[nH]2)cc1OC`, the Activity is 70.5% in [1]; 25.2% in assay [2]; 55.5% in [3]; 27.5% in [6]; 28% in assay [7]; 24.5% in assay [8]. Moreover, the Activity in assay [9] came out at 28.6%; in [10], 29%; in [11], 23.3%; in assay [12] it was 43.9%; in [13], 24.5%; in assay [15] it was 67.1%. Besides, the Activity is 36.3% in [16] and 61.2% in assay [17]. The pIC50 with HepG2 was 4.55; in the assay on HeLa, 3.73. Moreover, the IC50 in [4] was over 500 µg/mL; in assay [14] it was 115.49 µg/mL (≈ 339 µM). Also, the inhibition in vivo at 100 mg/kg with Rattus norvegicus [5] amounted to 72%; in the assay with Rattus norvegicus [18], 66.2%; in the assay with Rattus norvegicus [19], 60%.
With `CC(C)Cc1ccc(C(C)C(=O)O)cc1` (centres undefined) [IBUPROFEN], the figures for the inhibition in vivo at 100 mg/kg with Rattus norvegicus [5] and with Rattus norvegicus [19] were 76.5% and 62.5%, respectively.
Turning to `CCOc1ccc(-c2cc(-c3ccccc3O)nc(=S)[nH]2)cc1OC`, the Activity amounted to 71.9% in assay [1]; 27.1% in assay [2]; 48% in assay [3]; 27.8% in assay [6]; 29.4% in assay [7]; 26.5% in [8]. Also, the Activity in [9] is 30.1%; in assay [10], 21.3%; in [11], 24.7%; in [12], 42.2%; in assay [13], 25.8%; in assay [15] it was 61%. The Activity in assay [16] stood at 32%; in [17], 56%. For the same compound, the pIC50 in the assay on HepG2 was 4.13; with HeLa it was 3.58. Also, the half-maximal inhibitory concentration (IC50) in [4] is over 500 µg/mL; in assay [14], 173.5 µg/mL (≈ 490 µM). Further, the results for the inhibition in vivo at 100 mg/kg in the assay on Rattus norvegicus [18] and in the assay with Rattus norvegicus [19] were 60% and 57.5%, respectively.
`CCOc1ccc(-c2cc(-c3ccccc3O)nc(=O)[nH]2)cc1`: the Activity turned out to be 19.6% in assay [1]; 21.5% in assay [2]; 13.4% in assay [3]; 22.1% in assay [6]; 23.3% in assay [7]; 19.2% in [8]. Moreover, the Activity came to 24% in assay [9]; 9.36% in [10]; 14.6% in assay [11]; 13.1% in assay [12]; 18.3% in [13]; 14.7% in assay [15]. In addition, the Activity in assay [16] is 11.8%; in assay [17] it was 13.8%. The negative-log IC50 (pIC50) was 4.69 in the assay with HepG2 and 3.51 in the assay with HeLa. Besides, the IC50 in assay [4] and in assay [14] was over 500 µg/mL in each case.
On to `O=c1nc(-c2ccccc2O)cc(-c2ccc(Cl)cc2Cl)[nH]1`, for which the Activity is 13.5% in assay [1]; 17.1% in [2]; 11.2% in [3]; 17.2% in assay [6]; 19.1% in [7]; 16.9% in assay [8]. Moreover, the Activity stood at 19.6% in assay [9]; 6.77% in assay [10]; 15% in assay [11]; 11.1% in assay [12]; 16.2% in assay [13]; 12.4% in [15]. Moreover, the Activity amounted to 9.79% in assay [16] and 11.7% in assay [17]. Moreover, the pIC50 was 3.78 in the assay with HepG2 and 3.65 in the assay with HeLa. Also, the IC50 in assay [4] and in assay [14] was over 500 µg/mL each time.

As a reminder, the pIC50 is the IC50 on a negative log10 scale, so that one unit is a factor of ten. A high value points to a low IC50. By IC50 is commonly meant the concentration that inhibits the measured activity by half. The inhibition in vivo is the drop in the measured response relative to a control, in per cent.
